Experimental data published in PubChem BioAssay AID330 (DTP/NCI, 2004).
Several values for one entry are separate records, joined by “and”; a condition that tells them apart may be missing. Equal entries are not always repeated. Toxic doses and inconclusive results are not listed. Square brackets hold non-standard residues; d marks the D form. Peptide text beside a SMILES is read from it. ξ: configuration not given here. ξNle = CCCCC(N)C(=O)O

Test system: P388 leukemia ip, CD2F1 mice, survival T/C
Test: NCI In Vivo Anticancer Drug Screen. Data for tumor model P388 Leukemia (intraperitoneal) in CD2F1 (CDF1) mice
Conditions: endpoint: median survival time, higher = longer survival
Method: The antitumor activity of compounds was measured in mice bearing transplantable tumors. Survival or tumor size were measured and the results are expressed as the measurement made in the treated group (T) divided by the measurement made in the vehicle treated control group (C). The tumor model used in this assay is P388 Leukemia (intraperitoneal) in CD2F1 (CDF1) mice

[1] = dose: 50.0 mg/kg/injection, schedule: Q01DX005 (ip), vehicle: saline with Tween-80
[2] = dose: 100.0 mg/kg/injection, schedule: Q01DX005 (ip), vehicle: saline with Tween-80
[3] = dose: 200.0 mg/kg/injection, schedule: Q01DX005 (ip), vehicle: saline with Tween-80
[4] = dose: 100.0 mg/kg/injection, schedule: Q01DX009 (ip), vehicle: saline with Tween-80
[5] = dose: 100.0 mg/kg/injection, schedule: Q04DX003 (ip), vehicle: Klucel (hydroxypropylcellulose) (HPC)
[6] = dose: 200.0 mg/kg/injection, schedule: Q04DX003 (ip), vehicle: Klucel (hydroxypropylcellulose) (HPC)
[7] = dose: 400.0 mg/kg/injection, schedule: Q04DX003 (ip), vehicle: Klucel (hydroxypropylcellulose) (HPC)
[8] = dose: 25.0 mg/kg/injection, schedule: Q01DX009 (ip), vehicle: other
[9] = dose: 50.0 mg/kg/injection, schedule: Q01DX009 (ip), vehicle: other
[10] = dose: 100.0 mg/kg/injection, schedule: Q01DX009 (ip), vehicle: other
[11] = dose: 200.0 mg/kg/injection, schedule: Q01DX009 (ip), vehicle: other
[12] = dose: 100.0 mg/kg/injection, schedule: Q04DX002 (ip), vehicle: Klucel (hydroxypropylcellulose) (HPC)
[13] = dose: 200.0 mg/kg/injection, schedule: Q04DX002 (ip), vehicle: Klucel (hydroxypropylcellulose) (HPC)
[14] = dose: 50.0 mg/kg/injection, schedule: Q01DX005 (ip), vehicle: Klucel (hydroxypropylcellulose) (HPC)
[15] = dose: 100.0 mg/kg/injection, schedule: Q01DX005 (ip), vehicle: Klucel (hydroxypropylcellulose) (HPC)
[16] = dose: 200.0 mg/kg/injection, schedule: Q01DX005 (ip), vehicle: Klucel (hydroxypropylcellulose) (HPC)
[17] = dose: 6.25 mg/kg/injection, schedule: Q01DX009 (ip), vehicle: saline with Tween-80
[18] = dose: 12.5 mg/kg/injection, schedule: Q01DX009 (ip), vehicle: saline with Tween-80
[19] = dose: 25.0 mg/kg/injection, schedule: Q01DX009 (ip), vehicle: saline with Tween-80

Cc1ccc(S(=O)(=O)NC(=O)Nc2sc(=S)c3c(c2C#N)CCCC3)cc1
T/C [1]: 100 % of control
T/C [2]: 103 % of control

Cc1nnc2c(NO)nccn12
T/C (dose: 75.0 mg/kg/injection, schedule: Q01DX001 (ip), vehicle: saline): 99 % of control
T/C (dose: 150.0 mg/kg/injection, schedule: Q01DX001 (ip), vehicle: saline): 101 % of control
T/C (dose: 300.0 mg/kg/injection, schedule: Q01DX001 (ip), vehicle: saline): 96 % of control

O=C(NCc1ccccc1)OCc1c(COC(=O)NCc2ccccc2)c(-c2ccc(Cl)c(Cl)c2)n2c1CCC2
T/C (dose: 3.13 mg/kg/injection, schedule: Q01DX009 (ip), vehicle: distilled water + Tween-80): 105 % of control
T/C (dose: 6.25 mg/kg/injection, schedule: Q01DX009 (ip), vehicle: distilled water + Tween-80): 151 % of control
T/C (dose: 12.5 mg/kg/injection, schedule: Q01DX009 (ip), vehicle: distilled water + Tween-80): 158 % of control and 161 % of control
T/C (dose: 25.0 mg/kg/injection, schedule: Q01DX009 (ip), vehicle: distilled water + Tween-80): 160 % of control and 174 % of control
T/C (dose: 50.0 mg/kg/injection, schedule: Q01DX009 (ip), vehicle: distilled water + Tween-80): 164 % of control and 182 % of control
T/C (dose: 100.0 mg/kg/injection, schedule: Q01DX009 (ip), vehicle: distilled water + Tween-80): 194 % of control and 196 % of control

COc1cc2c(cc1OC)C(C)P(C)(=O)CC2=O (stereo not drawn)
T/C [1]: 96 % of control and 99 % of control
T/C [2]: 102 % of control and 101 % of control
T/C [3]: 102 % of control and 99 % of control

O=C(CCS(=O)(=O)CCC(=O)C(c1ccccc1)c1ccccc1)C(c1ccccc1)c1ccccc1
T/C (dose: 100.0 mg/kg/injection, schedule: Q04DX003 (ip), vehicle: saline): 97 % of control
T/C (dose: 200.0 mg/kg/injection, schedule: Q04DX003 (ip), vehicle: saline): 94 % of control
T/C (dose: 400.0 mg/kg/injection, schedule: Q04DX003 (ip), vehicle: saline): 90 % of control

CN(C)CCCN1CN(CCCN(C)C)CC(C)(C)C1
T/C (dose: 50.0 mg/kg/injection, schedule: Q01DX009 (ip), vehicle: saline with Tween-80): 103 % of control
T/C [4]: 106 % of control

CC(C(=O)O)c1ccc2sc(-c3ccccc3)nc2c1 (stereo not drawn)
T/C (dose: 50.0 mg/kg/injection, schedule: Q01DX009 (ip), vehicle: Klucel (hydroxypropylcellulose) (HPC)): 102 % of control
T/C (dose: 100.0 mg/kg/injection, schedule: Q01DX009 (ip), vehicle: Klucel (hydroxypropylcellulose) (HPC)): 100 % of control
T/C (dose: 200.0 mg/kg/injection, schedule: Q01DX009 (ip), vehicle: Klucel (hydroxypropylcellulose) (HPC)): 98 % of control

CCCCCCCCCCCCCCCCN(O)C(=O)c1cnc[nH]1
T/C [5]: 99 % of control
T/C [6]: 101 % of control
T/C [7]: 97 % of control

O=[N+]([O-])c1c(Cl)cc(Cl)c(-c2c(Cl)cc(Cl)c([N+](=O)[O-])c2Cl)c1Cl
T/C [8]: 102 % of control
T/C [9]: 106 % of control
T/C [10]: 107 % of control
T/C [11]: 106 % of control
T/C (dose: 400.0 mg/kg/injection, schedule: Q01DX009 (ip), vehicle: other): 105 % of control

CCC1(c2ccc(C)cc2)C(=O)NCNC1=O
T/C (dose: 60.0 mg/kg/injection, schedule: Q01DX005 (ip), vehicle: Klucel (hydroxypropylcellulose) (HPC)): 102 % of control
T/C (dose: 120.0 mg/kg/injection, schedule: Q01DX005 (ip), vehicle: Klucel (hydroxypropylcellulose) (HPC)): 102 % of control
T/C (dose: 240.0 mg/kg/injection, schedule: Q01DX005 (ip), vehicle: Klucel (hydroxypropylcellulose) (HPC)): 100 % of control

CC1=NOC(=O)/C1=C/c1ccc(Cl)c(Cl)c1
T/C [1]: 112 % of control
T/C [2]: 114 % of control

CNC(=O)OCc1c(COC(=O)NC)c(-c2ccc(Cl)c(Cl)c2)n2c1SCC2
T/C [1]: 106 % of control and 123 % of control

O=C1OC2CCCC2C12C(=O)O[C@@H]1CCC[C@@H]12 (mixture of isomers)
T/C (dose: 60.0 mg/kg/injection, schedule: Q01DX005 (ip), vehicle: saline with Tween-80): 97 % of control
T/C (dose: 120.0 mg/kg/injection, schedule: Q01DX005 (ip), vehicle: saline with Tween-80): 99 % of control
T/C (dose: 240.0 mg/kg/injection, schedule: Q01DX005 (ip), vehicle: saline with Tween-80): 99 % of control

Cn1c(=O)c2nc(-c3cccc([N+](=O)[O-])c3)cnc2n(C)c1=O
T/C [12]: 89 % of control
T/C [13]: 95 % of control
T/C (dose: 400.0 mg/kg/injection, schedule: Q04DX002 (ip), vehicle: Klucel (hydroxypropylcellulose) (HPC)): 100 % of control

CC1C[N+]2(CNC(=O)C3=C(O)C4(O)C(=O)C5=C(O)c6c(O)cccc6C(C)(O)C5CC4C(N(C)C)C3=O)CC(C)O[B-]2(c2ccccc2)O1 (stereo not drawn)
T/C [14]: 110 % of control
T/C [15]: 110 % of control
T/C [16]: 100 % of control

CCCCC(NC(=O)CNC(=O)CN)C(=O)O (stereo not drawn) (H-Gly-Gly-[ξNle]-OH)
T/C [1]: 94 % of control
T/C [2]: 94 % of control
T/C [3]: 93 % of control

O=C(O)CN(CC(=O)O)Cc1cc2c(c(O)c1O)C(=O)c1ccccc1C2=O
T/C [17]: 97 % of control
T/C [18]: 101 % of control
T/C [19]: 93 % of control
T/C [4]: 100 % of control
T/C (dose: 200.0 mg/kg/injection, schedule: Q01DX009 (ip), vehicle: saline with Tween-80): 100 % of control

O=NN(CC(=O)OCc1ccccc1)OCc1ccccc1
T/C (dose: 12.5 mg/kg/injection, schedule: Q01DX009 (ip), vehicle: other): 101 % of control
T/C [8]: 104 % of control
T/C [9]: 102 % of control
T/C [10]: 108 % of control
T/C [11]: 100 % of control

CCOC(=O)Cn1cnc2cc(Cl)c([N+](=O)[O-])cc2c1=O
T/C [5]: 100 % of control and 110 % of control
T/C [6]: 101 % of control and 121 % of control
T/C [7]: 100 % of control
T/C (dose: 600.0 mg/kg/injection, schedule: Q04DX003 (ip), vehicle: Klucel (hydroxypropylcellulose) (HPC)): 107 % of control

NC(=NCCCCCCN=C(N)[N+](=O)[O-])N[N+](=O)[O-]
T/C (dose: 6.25 mg/kg/injection, schedule: Q01DX009 (ip), vehicle: Klucel (hydroxypropylcellulose) (HPC)): 113 % of control and 123 % of control
T/C (dose: 12.5 mg/kg/injection, schedule: Q01DX009 (ip), vehicle: Klucel (hydroxypropylcellulose) (HPC)): 105 % of control and 106 % of control
T/C (dose: 25.0 mg/kg/injection, schedule: Q01DX009 (ip), vehicle: Klucel (hydroxypropylcellulose) (HPC)): 99 % of control and 106 % of control

OCCCCC/C=C/CCCCCCC1C=CCC1 (stereo not drawn)
T/C (dose: 100.0 mg/kg/injection, schedule: Q01DX001 (ip), vehicle: saline): 99 % of control
T/C (dose: 200.0 mg/kg/injection, schedule: Q01DX001 (ip), vehicle: saline): 99 % of control
T/C (dose: 400.0 mg/kg/injection, schedule: Q01DX001 (ip), vehicle: saline): 99 % of control

CC(=O)OCC1OC(OC2C(COC(C)=O)OC(Sc3ccccc3)C(OC(C)=O)C2OC(C)=O)C(OC(C)=O)C(OC(C)=O)C1OC(C)=O (stereo not drawn)
T/C [14]: 100 % of control
T/C [15]: 100 % of control
T/C [12]: 94 % of control
T/C [16]: 109 % of control
T/C [13]: 91 % of control

ClCCN1c2ccc3ccccc3c2Sc2ccc3ccccc3c21
T/C [1]: 95 % of control
T/C [2]: 89 % of control

CCCC(NC(=O)C(C)NC(=O)OCc1ccccc1)C(=O)O (stereo not drawn)
T/C [14]: 98 % of control
T/C [15]: 96 % of control
T/C [16]: 96 % of control

Nn1cnc2[nH]ncc2c1=O
T/C (dose: 60.0 mg/kg/injection, schedule: Q01DX005 (ip), vehicle: saline): 99 % of control
T/C (dose: 120.0 mg/kg/injection, schedule: Q01DX005 (ip), vehicle: saline): 99 % of control
T/C (dose: 240.0 mg/kg/injection, schedule: Q01DX005 (ip), vehicle: saline): 105 % of control

CSc1nc(C)c(Br)c(Nc2ccc(C(N)=O)cc2)n1
T/C (dose: 3.13 mg/kg/injection, schedule: Q01DX009 (ip), vehicle: saline with Tween-80): 102 % of control
T/C [17]: 94 % of control
T/C [18]: 96 % of control
T/C [19]: 94 % of control

NC1(c2ccccc2)CCCCC1
T/C (dose: 12.5 mg/kg/injection, schedule: Q01DX009 (ip), vehicle: saline): 99 % of control
T/C (dose: 25.0 mg/kg/injection, schedule: Q01DX009 (ip), vehicle: saline): 106 % of control
T/C (dose: 50.0 mg/kg/injection, schedule: Q01DX009 (ip), vehicle: saline): 105 % of control
